System: patients with advanced solid tumors
Assay: Safety: treatment-emergent and senaparib-related adverse events graded per NCI CTCAE v4.03
Assay type: in vivo
Description: This phase I, open-label, multicenter, dose-escalation, and dose-expansion study was conducted at three national clinical institutions in China. […] At baseline, all patients enrolled in the dose-escalation phase had to have at least one evaluable lesion, and those in the dose-expansion period had to have at least one measurable lesion, according to Response Evaluation Criteria in Solid Tumors version 1.1 (RECIST v1.1).[16] Entry to the dose-expansion cohort required the presence of a BRCA mutation, with the exception of patients with ovarian carcinoma, fallopian tube carcinoma, and primary peritoneal carcinoma. Full study eligibility criteria are provided in Supplementary Table S1.
Dose escalation was conducted using a modified Fibonacci 3 + 3 method (Supplementary Fig. S1).[17] Patients were administered oral senaparib from a planned starting dose of 2 mg once daily (QD), with preliminary dose escalation to 120 mg via nine dose groups, in order of their entry into the study. At a given dose level, each patient received a single dose of senaparib followed by a 7-day washout period. They then entered a continuous dosing period to confirm the safety and PK profile, in which they received senaparib QD from day 1 to day 21 of each 3-week cycle. Progression to the next higher dose required approval from the Data Safety Monitoring Committee (DSMC) upon review of the safety and PK data of the previous dose. A 50-mg twice-daily (BID) dosing group was added (planned enrollment, n = 6 patients) based on a DSMC review of the safety, PK, and efficacy analysis of the completed QD dose groups in the phase I clinical trial of senaparib dose escalation in Australia (NCT03507543), which commenced prior to the start of this trial.
The dose-expansion period included 3 populations: dose groups in which at least one patient achieved complete response (CR) or partial response (PR) per RECIST v1.1[16] and 1 dose group higher (evaluated for safety), as well as the dose group at the maximum tolerated dose (MTD)/recommended phase II dose (RP2D). Each of these groups included those patients in the respective dose-escalation group plus a planned additional 10 patients (approximately 20 patients in the MTD/RP2D group) with BRCA^mut+ solid tumors (ovarian, breast, or prostate cancer were preferred, and ovarian cancer could be BRCA wild type). Patients received senaparib monotherapy orally QD or BID (50-mg dose only) over each 3-week cycle until disease progression or unacceptable toxicity.
DLTs were predefined toxicities (Supplementary Table S2) recorded over the 7 days following the single-dose administration of senaparib and during the first treatment cycle (day 1-day 21) for each dose group in the dose-escalation period only. The MTD was defined as the maximum dose at which ≤1/6 patients experienced a DLT. Senaparib PK parameters were derived from blood samples collected from patients after the single administration, and at regular intervals during the first cycle of the dose-escalation and dose-expansion periods. Plasma concentrations of senaparib were determined using high-performance liquid chromatography-tandem mass spectrometry. Tumor response was assessed every 6 weeks per RECIST v1.1,[16] recording objective response rate (ORR), disease control rate (DCR), duration of response (DOR), and progression-free survival (PFS) by dose level for all patients and for those harboring BRCA^mut+ tumors.

O=C(c1cc(Cn2c(=O)[nH]c(=O)c3c(F)cccc32)ccc1F)N1CCN(c2ncccn2)CC1 [Senaparib]
Pain in extremity, Gr≥3 (TEAE, 120 mg QD n = 4): 0 n (%)
Platelet count decreased, All (TEAE, 120 mg QD n = 4): 1 (25.0) n (%)
Platelet count decreased, Gr≥3 (TEAE, 120 mg QD n = 4): 0 n (%)
Protein in urine, All (TEAE, 120 mg QD n = 4): 1 (25.0) n (%)
Protein in urine, Gr≥3 (TEAE, 120 mg QD n = 4): 0 n (%)
Vomiting, All (TEAE, 120 mg QD n = 4): 1 (25.0) n (%)
Vomiting, Gr≥3 (TEAE, 120 mg QD n = 4): 0 n (%)
WBC decreased, All (TEAE, 120 mg QD n = 4): 4 (100) n (%)
WBC decreased, Gr≥3 (TEAE, 120 mg QD n = 4): 0 n (%)
ALT increased, All (TEAE, Total N = 57): 10 (17.5) n (%)
ALT increased, Gr≥3 (TEAE, Total N = 57): 1 (1.8) n (%)
AST increased, All (TEAE, Total N = 57): 10 (17.5) n (%)
AST increased, Gr≥3 (TEAE, Total N = 57): 1 (1.8) n (%)
Abdominal distension, All (TEAE, Total N = 57): 7 (12.3) n (%)
Abdominal distension, Gr≥3 (TEAE, Total N = 57): 0 n (%)
Anemia (incl. hemoglobin decreased), Gr≥3 (TEAE, Total N = 57): 12 (21.1) n (%)
Appetite decreased, All (TEAE, Total N = 57): 14 (24.6) n (%)
Appetite decreased, Gr≥3 (TEAE, Total N = 57): 0 n (%)
Asthenia, All (TEAE, Total N = 57): 16 (28.1) n (%)
Asthenia, Gr≥3 (TEAE, Total N = 57): 0 n (%)
Blood bilirubin increased, All (TEAE, Total N = 57): 8 (14.0) n (%)
Blood bilirubin increased, Gr≥3 (TEAE, Total N = 57): 1 (1.8) n (%)
Blood creatinine increased, All (TEAE, Total N = 57): 8 (14.0) n (%)
Blood creatinine increased, Gr≥3 (TEAE, Total N = 57): 0 n (%)
Hypokalemia, All (TEAE, Total N = 57): 6 (10.5) n (%)
Hypokalemia, Gr≥3 (TEAE, Total N = 57): 0 n (%)
Hyponatremia, All (TEAE, Total N = 57): 7 (12.3) n (%)
Hyponatremia, Gr≥3 (TEAE, Total N = 57): 1 (1.8) n (%)
Nausea, All (TEAE, Total N = 57): 14 (24.6) n (%)
Nausea, Gr≥3 (TEAE, Total N = 57): 0 n (%)
Neutrophil count decreased, All (TEAE, Total N = 57): 12 (21.1) n (%)
Neutrophil count decreased, Gr≥3 (TEAE, Total N = 57): 3 (5.3) n (%)
Pain in extremity, All (TEAE, Total N = 57): 7 (12.3) n (%)
Pain in extremity, Gr≥3 (TEAE, Total N = 57): 2 (3.5) n (%)
Platelet count decreased, All (TEAE, Total N = 57): 17 (29.8) n (%)
Platelet count decreased, Gr≥3 (TEAE, Total N = 57): 3 (5.3) n (%)
Protein in urine, All (TEAE, Total N = 57): 6 (10.5) n (%)
Protein in urine, Gr≥3 (TEAE, Total N = 57): 0 n (%)
Vomiting, All (TEAE, Total N = 57): 12 (21.1) n (%)
Vomiting, Gr≥3 (TEAE, Total N = 57): 2 (3.5) n (%)
WBC decreased, All (TEAE, Total N = 57): 25 (43.9) n (%)
WBC decreased, Gr≥3 (TEAE, Total N = 57): 2 (3.5) n (%)
ALT increased TRAE, All (Total N = 57): 10 (17.5) n (%)
ALT increased TRAE, Gr≥3 (Total N = 57): 1 (1.8) n (%)
AST increased TRAE, All (Total N = 57): 10 (17.5) n (%)
AST increased TRAE, Gr≥3 (Total N = 57): 1 (1.8) n (%)
Anemia TRAE, Gr≥3 (Total N = 57): 12 (21.1) n (%)
Any TEAE, All (Total N = 57): 57 (100) n (%)
Any TEAE, Gr≥3 (Total N = 57): 27 (47.4) n (%)
Any TEAE, events (Total N = 57): 491 n ev
Any TEAE, patients (Total N = 57): 57 (100) n (%)
Any TRAE, All (Total N = 57): 55 (96.5) n (%)
Any TRAE, Gr≥3 (Total N = 57): 19 (33.3) n (%)
Appetite decreased TRAE, All (Total N = 57): 13 (22.8) n (%)
Appetite decreased TRAE, Gr≥3 (Total N = 57): 0 n (%)
Asthenia TRAE, All (Total N = 57): 15 (26.3) n (%)
Asthenia TRAE, Gr≥3 (Total N = 57): 0 n (%)
Blood bilirubin increased TRAE, All (Total N = 57): 8 (14.0) n (%)
Blood bilirubin increased TRAE, Gr≥3 (Total N = 57): 1 (1.8) n (%)
Blood creatinine increased TRAE, All (Total N = 57): 8 (14.0) n (%)
Blood creatinine increased TRAE, Gr≥3 (Total N = 57): 0 n (%)
Hypokalemia TRAE, All (Total N = 57): 6 (10.5) n (%)
Hypokalemia TRAE, Gr≥3 (Total N = 57): 0 n (%)
Nausea TRAE, All (Total N = 57): 14 (24.6) n (%)
Nausea TRAE, Gr≥3 (Total N = 57): 0 n (%)
Neutrophil count decreased TRAE, All (Total N = 57): 12 (21.1) n (%)
Neutrophil count decreased TRAE, Gr≥3 (Total N = 57): 3 (5.3) n (%)
Platelet count decreased TRAE, All (Total N = 57): 16 (28.1) n (%)
Platelet count decreased TRAE, Gr≥3 (Total N = 57): 3 (5.3) n (%)
SAEs, events (Total N = 57): 12 n ev
SAEs, patients (Total N = 57): 12 (21.1) n (%)
TEAE Grade ≥3, events (Total N = 57): 41 n ev
TEAE Grade ≥3, patients (Total N = 57): 27 (47.4) n (%)
TEAEs leading to death, events (Total N = 57): 2 n ev
TEAEs leading to death, patients (Total N = 57): 2 (3.5) n (%)
TEAEs leading to dose discontinuation, events (Total N = 57): 10 n ev
TEAEs leading to dose discontinuation, patients (Total N = 57): 6 (10.5) n (%)
TEAEs leading to dose interruption, events (Total N = 57): 23 n ev
TEAEs leading to dose interruption, patients (Total N = 57): 15 (26.3) n (%)
TEAEs leading to dose reduction, events (Total N = 57): 10 n ev
TEAEs leading to dose reduction, patients (Total N = 57): 8 (14.0) n (%)
TRAEs Grade ≥3, events (Total N = 57): 29 n ev
TRAEs Grade ≥3, patients (Total N = 57): 19 (33.3) n (%)
TRAEs, events (Total N = 57): 403 n ev
TRAEs, patients (Total N = 57): 55 (96.5) n (%)
Vomiting TRAE, All (Total N = 57): 10 (17.5) n (%)
Vomiting TRAE, Gr≥3 (Total N = 57): 1 (1.8) n (%)
WBC decreased TRAE, All (Total N = 57): 25 (43.9) n (%)
WBC decreased TRAE, Gr≥3 (Total N = 57): 2 (3.5) n (%)
All other grade ≥3 TEAEs, incidence of each (all patients N = 57): ≤ 3.5%
Anemia causing study drug discontinuation, patients (all patients N = 57): 5.3%
Grade ≥3 TEAE: anemia, incidence (all patients N = 57): 21.1%
Grade ≥3 TEAE: neutrophil count decreased, incidence (all patients N = 57): 5.3%
Grade ≥3 TEAE: platelet count decreased, incidence (all patients N = 57): 5.3%
Grade ≥3 TEAEs, incidence (all patients N = 57): 47.4%
Grade ≥3 TRAE: anemia, incidence (all patients N = 57): 21.1%
Overall incidence of grade ≥3 TRAEs (all patients N = 57): 33.3%
Patients with senaparib-related adverse events (TRAEs) (all patients N = 57): 96.5%
Serious adverse events considered related to senaparib, patients (all patients N = 57): 12.3%
Serious adverse events, patients (all patients N = 57): 21.1%
TEAEs causing dose interruption, patients (all patients N = 57): 26.3%
TEAEs causing dose reduction, patients (all patients N = 57): 14.0%
TEAEs causing study drug discontinuation, patients (all patients N = 57): 10.5%
TEAEs, number of events (all patients N = 57): 491 events
Senaparib-related adverse event (TRAE): anemia, incidence (all patients N = 57, any grade): 80.9%
TEAE: anemia, incidence (all patients N = 57, any grade): 80.9%
TEAE: asthenia, incidence (all patients N = 57, any grade): 28.1%
TEAE: platelet count decreased, incidence (all patients N = 57, any grade): 29.8%
TEAE: white blood cell count (WBC) decreased, incidence (all patients N = 57, any grade): 43.9%
TRAE: asthenia, incidence (all patients N = 57, any grade): 26.3%
TRAE: platelet count decreased, incidence (all patients N = 57, any grade): 28.1%
TRAE: white blood cell count decreased, incidence (all patients N = 57, any grade): 43.9%
TEAEs resulting in death, patients (all patients N = 57, neither related to senaparib): 3.5%
Patients with most frequent (hematologic) TRAEs of grade ≤3 (in vivo): > 90%
Pneumonitis and venous thromboembolic events (present study): neither of which were observed
Secondary hematologic tumors (AML/MDS) (present study population): no cases
